# Key:
# [1] = biological target: PRMT5/MEP50 protein complex (Homo sapiens (Human), UniProt O14744); test: PRMT5 biochemical assay (3H-SAM methylation of H4(1-21) peptide, filter plate scintillation); conditions: 10 nM PRMT5/MEP50 complex, 200 nM H4(1-21) peptide, 1 uM SAM, 25 minute incubation at room temperature
# Procedure, shortened: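 Scintillation read-out: after 25 min at room temperature and a TCA stop, tritiated H4(1-21) product (peptide 200 nM) is caught on a filter plate. Reaction holds 10 nM PRMT5/MEP50 and 1 uM 3H-labelled plus cold SAM in 50 mM Tris pH 8.5 with MgCl2, EDTA and TCEP. IC50 values come from a 4-parameter dose-response fit.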
# [2] = test system: A549 lung adenocarcinoma cells; test: A549 proliferation assay (Cell Titer Glo); format: cell-based; conditions: 7 days with compound, cell viability by Cell Titer Glo (ATP)
# Procedure, shortened: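 A549 cells plated overnight, then treated with nine-point 3.3-fold dilutions (final top 10 μM, 0.2% DMSO) for 7 days at 37 °C, with media and compound refreshed on day 4. Viability measured as ATP by Cell Titer Glo luminescence; IC50 from 4-parameter fit normalized to DMSO control.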
# PRMT5/MEP50 protein complex, sequence (O14744 other isoform, or with tags, fused parts or gaps): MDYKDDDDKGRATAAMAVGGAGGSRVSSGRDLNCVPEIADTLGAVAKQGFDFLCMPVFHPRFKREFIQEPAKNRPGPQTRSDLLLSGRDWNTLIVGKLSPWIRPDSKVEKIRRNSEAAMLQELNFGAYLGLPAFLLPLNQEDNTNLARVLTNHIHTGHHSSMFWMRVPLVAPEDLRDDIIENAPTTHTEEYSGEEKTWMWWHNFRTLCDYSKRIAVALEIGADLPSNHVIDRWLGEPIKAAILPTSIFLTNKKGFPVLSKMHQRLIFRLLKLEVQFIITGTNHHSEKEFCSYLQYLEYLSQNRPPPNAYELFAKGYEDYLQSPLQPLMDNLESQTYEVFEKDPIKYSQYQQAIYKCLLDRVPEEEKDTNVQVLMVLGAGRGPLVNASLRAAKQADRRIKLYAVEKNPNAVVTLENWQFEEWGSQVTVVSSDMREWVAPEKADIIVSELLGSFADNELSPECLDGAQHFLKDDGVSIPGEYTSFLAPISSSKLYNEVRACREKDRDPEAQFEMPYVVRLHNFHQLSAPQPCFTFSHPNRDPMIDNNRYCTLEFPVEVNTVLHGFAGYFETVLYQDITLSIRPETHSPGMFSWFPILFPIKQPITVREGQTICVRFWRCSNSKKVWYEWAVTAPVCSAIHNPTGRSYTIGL
# PRMT5/MEP50 protein complex, sequence (Q9BQA1 whole entry partner): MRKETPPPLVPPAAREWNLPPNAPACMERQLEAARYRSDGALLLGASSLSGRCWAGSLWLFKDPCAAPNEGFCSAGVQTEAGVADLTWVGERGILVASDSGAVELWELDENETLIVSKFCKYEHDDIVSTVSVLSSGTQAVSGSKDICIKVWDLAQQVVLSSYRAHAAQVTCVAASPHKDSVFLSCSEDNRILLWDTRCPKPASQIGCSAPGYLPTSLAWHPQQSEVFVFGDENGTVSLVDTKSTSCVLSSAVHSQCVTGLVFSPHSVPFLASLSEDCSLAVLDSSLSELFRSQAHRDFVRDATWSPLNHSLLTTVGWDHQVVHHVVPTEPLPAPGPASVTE
IC50 [1] [nM],"IC50 ([2]; Homo sapiens, A549, 168 h) [nM]",IC50 [2] [nM],Structure (SMILES)
1,1550,,"Cc1ncnc2c1ccn2[C@@H]1C[C@H](Oc2cccc3c2CNC[C@H](C)O3)[C@@H](O)[C@H]1O [Example 210, (1S,2S,3S,5R)-3-(((S)-2-methyl-2,3,4,5-tetrahydrobenzo[f][1,4]oxazepin-6-yl)oxy)-5-(4-methyl-7H-pyrrolo[2,3-d]pyrimidin-7-yl)cyclopentane-1,2-diol]"
1,,14,"Cc1ncnc2c1ccn2[C@@H]1C[C@H](Oc2cc(C(F)F)c(F)c3c2CNCC3C)[C@@H](O)[C@H]1O (stereo partly drawn) [Example 211, (1S,2S,3S,5R)-3-((6-(difluoromethyl)-5-fluoro-4-methyl-1,2,3,4-tetrahydroisoquinolin-8-yl)oxy)-5-(4-methyl-7H-pyrrolo[2,3-d]pyrimidin-7-yl)cyclopentane-1,2-diol]"
1,,2,"Cc1ncnc2c1ccn2[C@@H]1C[C@H](Oc2cc(C(F)F)c(F)c3c2CNCC3C)[C@@H](O)[C@H]1O (stereo partly drawn) [Example 212, (1S,2S,3S,5R)-3-((6-(difluoromethyl)-5-fluoro-4-methyl-1,2,3,4-tetrahydroisoquinolin-8-yl)oxy)-5-(4-methyl-7H-pyrrolo[2,3-d]pyrimidin-7-yl)cyclopentane-1,2-diol]"
1,,1,"CC1CNCc2c(O[C@H]3C[C@@H](n4cc(F)c5c(N)ncnc54)[C@H](O)[C@@H]3O)cc(C(F)F)c(F)c21 (stereo partly drawn) [Example 215, (1S,2S,3R,5S)-3-(4-amino-5-fluoro-7H-pyrrolo[2,3-d]pyrimidin-7-yl)-5-((6-(difluoromethyl)-5-fluoro-4-methyl-1,2,3,4-tetrahydroisoquinolin-8-yl)oxy)cyclopentane-1,2-diol]"
1,,6,"CC1CNCc2c(O[C@H]3C[C@@H](n4cc(F)c5c(N)ncnc54)[C@H](O)[C@@H]3O)cc(C(F)F)c(F)c21 (stereo partly drawn) [Example 216, (1S,2S,3R,5S)-3-(4-amino-5-fluoro-7H-pyrrolo[2,3-d]pyrimidin-7-yl)-5-((6-(difluoromethyl)-5-fluoro-4-methyl-1,2,3,4-tetrahydroisoquinolin-8-yl)oxy)cyclopentane-1,2-diol]"

# — patent US10709709B2, “Substituted carbonucleoside derivatives useful as anticancer agents” (Pfizer Inc., priority 2016, dated 2020)
